Test results taken from patent US12139487B2, “Compounds and uses thereof” (Foghorn Therapeutics Inc., priority 2022, dated 2024).

Legend:
BRG-1 = molecular target: T1, BRG-1 (Homo sapiens, UniProt P51532); assay: ATPase catalytic activity assay (ADP-Glo), BRG-1; format: biochemical; conditions: Table 10, read-out: BRG1 IC50
T1 construct: made in house; host or cells: High Five insect cells
Experimental: The ATPase catalytic activity of BRM or BRG-1 was measured by an in vitro biochemical assay using ADP-Glo™ (Promega, V9102). The ADP-Glo™ kinase assay is performed in two steps once the reaction is complete. The first step is to deplete any unconsumed ATP in the reaction. The second step is to convert the reaction product ADP to ATP, which will be utilized by the luciferase to generate luminesce and be detected by a luminescence reader, such as Envision.
Then, following addition of 5 μL of ADP-Glo™ Reagent provided in the kit, the reaction incubates at room temperature for 40 minutes. Then, 10 μL of Kinase Detection Reagent provided in the kit is added to convert ADP to ATP, and the reaction incubates at room temperature for 60 minutes. Finally, luminescence measurement is collected with a plate-reading luminometer, such as Envision.

BRM = molecular target: T2, BRM (Homo sapiens, UniProt P51531); assay: ATPase catalytic activity assay (ADP-Glo), BRM; format: biochemical; conditions: Table 10; for Ratio (BRG1 IC50 (μM) divided by BRM IC50 (μM)): ATPase assay, selectivity BRG1/BRM; for IC50: ATPase catalytic activity assay (ADP-Glo)
T2 construct: made in house; host or cells: High Five insect cells
T2 sequence (P51531 whole entry): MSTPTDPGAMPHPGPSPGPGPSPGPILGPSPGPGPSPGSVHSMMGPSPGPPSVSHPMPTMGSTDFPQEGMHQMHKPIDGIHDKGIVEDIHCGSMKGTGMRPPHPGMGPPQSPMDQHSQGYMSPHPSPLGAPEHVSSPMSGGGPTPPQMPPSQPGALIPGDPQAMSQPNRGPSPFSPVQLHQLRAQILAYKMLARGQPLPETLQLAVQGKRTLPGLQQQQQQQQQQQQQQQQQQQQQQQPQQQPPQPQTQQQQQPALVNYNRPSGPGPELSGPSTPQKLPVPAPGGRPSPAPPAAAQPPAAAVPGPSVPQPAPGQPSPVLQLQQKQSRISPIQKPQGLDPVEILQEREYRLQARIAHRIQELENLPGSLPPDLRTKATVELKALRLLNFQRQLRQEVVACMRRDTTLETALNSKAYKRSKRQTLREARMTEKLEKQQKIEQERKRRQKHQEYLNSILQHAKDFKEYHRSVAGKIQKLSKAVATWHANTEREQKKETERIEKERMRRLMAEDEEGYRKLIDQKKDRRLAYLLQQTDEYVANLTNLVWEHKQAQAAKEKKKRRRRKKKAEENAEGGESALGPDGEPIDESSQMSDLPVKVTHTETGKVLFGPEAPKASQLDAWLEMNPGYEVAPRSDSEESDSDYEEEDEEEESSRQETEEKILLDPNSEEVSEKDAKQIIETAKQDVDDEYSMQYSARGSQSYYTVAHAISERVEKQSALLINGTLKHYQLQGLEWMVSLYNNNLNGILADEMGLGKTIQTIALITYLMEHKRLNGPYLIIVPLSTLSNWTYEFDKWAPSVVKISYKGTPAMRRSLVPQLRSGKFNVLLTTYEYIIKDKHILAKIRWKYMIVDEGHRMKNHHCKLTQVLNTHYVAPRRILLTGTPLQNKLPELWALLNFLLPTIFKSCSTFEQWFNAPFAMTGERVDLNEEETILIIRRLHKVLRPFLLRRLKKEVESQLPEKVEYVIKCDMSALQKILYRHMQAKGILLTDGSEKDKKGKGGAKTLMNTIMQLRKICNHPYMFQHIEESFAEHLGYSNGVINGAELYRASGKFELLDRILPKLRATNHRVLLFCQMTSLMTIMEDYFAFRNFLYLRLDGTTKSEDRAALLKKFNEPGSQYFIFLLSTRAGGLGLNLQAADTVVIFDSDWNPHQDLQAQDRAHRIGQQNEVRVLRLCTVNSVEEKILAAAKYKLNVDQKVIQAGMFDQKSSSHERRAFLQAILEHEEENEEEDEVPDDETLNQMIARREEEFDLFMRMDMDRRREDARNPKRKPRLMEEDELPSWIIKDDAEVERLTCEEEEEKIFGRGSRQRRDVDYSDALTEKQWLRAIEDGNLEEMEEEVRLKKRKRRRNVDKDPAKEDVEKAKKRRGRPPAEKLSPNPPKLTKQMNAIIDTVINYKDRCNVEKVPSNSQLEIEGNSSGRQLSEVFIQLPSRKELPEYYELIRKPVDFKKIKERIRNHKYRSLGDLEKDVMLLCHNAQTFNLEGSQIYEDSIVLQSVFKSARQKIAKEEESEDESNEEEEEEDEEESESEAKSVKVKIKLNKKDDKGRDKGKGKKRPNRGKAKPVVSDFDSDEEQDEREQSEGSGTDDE
Outline: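 ADP-Glo luminescence measures ADP produced by BRM ATPase (30 nM) during 1 h at room temperature. ATP is 400 μM, with 20 nM salmon sperm DNA as cofactor. Buffer: 20 mM Tris pH 8, 20 mM MgCl2, 50 mM NaCl, 0.1% Tween-20, 1 mM DTT.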

T1 sequence (P51532 whole entry): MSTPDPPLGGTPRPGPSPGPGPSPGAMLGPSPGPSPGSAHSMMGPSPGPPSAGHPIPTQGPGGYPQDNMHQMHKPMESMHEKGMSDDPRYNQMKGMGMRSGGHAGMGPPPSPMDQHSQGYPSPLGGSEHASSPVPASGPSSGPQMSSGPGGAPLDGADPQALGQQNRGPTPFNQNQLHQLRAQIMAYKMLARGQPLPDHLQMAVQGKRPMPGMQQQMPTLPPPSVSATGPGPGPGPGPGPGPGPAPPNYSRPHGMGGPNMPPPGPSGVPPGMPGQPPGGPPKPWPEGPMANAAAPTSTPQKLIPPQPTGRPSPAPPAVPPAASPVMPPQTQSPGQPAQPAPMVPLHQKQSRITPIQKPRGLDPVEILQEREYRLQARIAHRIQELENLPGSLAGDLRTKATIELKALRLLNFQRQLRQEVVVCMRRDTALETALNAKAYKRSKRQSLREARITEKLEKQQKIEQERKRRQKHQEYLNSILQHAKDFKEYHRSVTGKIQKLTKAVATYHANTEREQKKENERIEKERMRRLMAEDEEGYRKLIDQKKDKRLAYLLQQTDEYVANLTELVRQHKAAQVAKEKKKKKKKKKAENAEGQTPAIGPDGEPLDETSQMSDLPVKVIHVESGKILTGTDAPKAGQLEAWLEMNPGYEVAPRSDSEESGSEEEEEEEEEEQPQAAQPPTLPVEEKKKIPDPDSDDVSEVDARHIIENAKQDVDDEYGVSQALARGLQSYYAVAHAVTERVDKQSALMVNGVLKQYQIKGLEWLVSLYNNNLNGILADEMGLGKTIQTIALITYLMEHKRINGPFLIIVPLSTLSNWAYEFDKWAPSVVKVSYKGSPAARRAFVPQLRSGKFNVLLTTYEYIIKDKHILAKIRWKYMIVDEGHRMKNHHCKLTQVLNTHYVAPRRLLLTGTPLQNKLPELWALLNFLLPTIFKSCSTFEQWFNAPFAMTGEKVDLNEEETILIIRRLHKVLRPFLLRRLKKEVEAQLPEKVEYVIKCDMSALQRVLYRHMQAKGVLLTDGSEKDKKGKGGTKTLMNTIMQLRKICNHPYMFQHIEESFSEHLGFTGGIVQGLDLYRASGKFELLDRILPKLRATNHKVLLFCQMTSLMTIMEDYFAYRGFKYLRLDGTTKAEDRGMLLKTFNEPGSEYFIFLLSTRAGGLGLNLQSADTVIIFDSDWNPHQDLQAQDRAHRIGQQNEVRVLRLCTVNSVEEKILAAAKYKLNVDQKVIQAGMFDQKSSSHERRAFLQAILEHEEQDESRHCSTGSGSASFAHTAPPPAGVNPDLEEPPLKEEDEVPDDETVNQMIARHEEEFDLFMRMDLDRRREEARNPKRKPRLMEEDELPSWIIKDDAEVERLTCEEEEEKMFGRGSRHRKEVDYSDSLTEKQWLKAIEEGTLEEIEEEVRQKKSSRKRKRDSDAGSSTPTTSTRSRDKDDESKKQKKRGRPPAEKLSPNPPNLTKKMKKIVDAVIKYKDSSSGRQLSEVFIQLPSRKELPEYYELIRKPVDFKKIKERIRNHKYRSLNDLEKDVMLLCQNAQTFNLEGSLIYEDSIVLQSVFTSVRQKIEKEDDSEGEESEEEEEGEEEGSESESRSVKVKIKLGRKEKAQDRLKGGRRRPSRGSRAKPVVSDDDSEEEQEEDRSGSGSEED

IC50 (BRG-1) [nM]	Ratio (BRG1 IC50 (μM) divided by BRM IC50 (μM)) (BRM)	IC50 (BRM) [nM]	Structure (SMILES)
39.1	19.40	1.8	O=C(NCc1cc2nc(N3CCOc4cc(N5CC(F)C5)cnc43)ccc2cn1)c1cc(F)c2c(c1)S(=O)(=O)[C@@H](F)COC2 [Compound 30]
115	11.01	10.5	O=C(NCc1cc2nc(N3CCOc4cc(C#CC5CC5)cnc43)ccc2cn1)c1cc(F)c2c(c1)S(=O)(=O)[C@@H](F)COC2 [Compound 309]
94.6	9.97	9.5	O=C(NCc1cc2nc(N3CCOc4c(N5CC(F)C5)ccnc43)ccc2cn1)c1cc(F)c2c(c1)S(=O)(=O)[C@@H](F)CCO2 [Compound 285]
62.1	10.64	5.8	Cn1ccc2c(-c3ccc4cnc(CNC(=O)c5cc(F)c6c(c5)S(=O)(=O)[C@@H](F)CCO6)cc4n3)cccc21 [Compound 191]
220	26.90	8	O=C(NCc1cc2nc(-c3cccc([C@H]4CC4(F)F)n3)ccc2cn1)c1cc(F)c2c(c1)S(=O)(=O)[C@@H](F)CCO2 [Compound 250]
115	15.91	7.1	COCc1cnc2c(c1)OCCN2c1ccc2cnc(CNC(=O)c3cc(F)c4c(c3)S(=O)(=O)[C@@H](F)CCO4)cc2n1 [Compound 224]
219	23.94	8	O=C(NCc1cc2nc(-c3cccc(C4CC4)n3)ccc2cn1)c1cc(F)c2c(c1)S(=O)(=O)[C@@H](F)CCO2 [Compound 252]
69.5	13.92	5	COc1cnc2c(c1)OCCN2c1ccc2cnc(CNC(=O)c3cc(F)c4c(c3)S(=O)(=O)[C@@H](F)CCO4)cc2c1 [Compound 153]
187	17.27	9.6	O=C(NCc1cc2nc(-c3ccnc(C45CC(C4)C5)n3)ccc2cn1)c1cc(F)c2c(c1)S(=O)(=O)[C@@H](F)COC2 [Compound 290]
34.1	13.42	2.3	O=C(NCc1cc2nc(N3CCOc4cc(N5CCC5)cnc43)ccc2cn1)c1cc(F)c2c(c1)S(=O)(=O)[C@@H](F)COC2 [Compound 48]
57.1	20.62	2.8	Cc1ccc(-c2ccc3cnc(CNC(=O)c4cc(F)c5c(c4)S(=O)(=O)[C@@H](F)COC5)cc3n2)c(OC(F)F)n1 [Compound 73]
64.1	23.96	2.1	COc1nc([C@H](F)CF)ccc1-c1ccc2cnc(CNC(=O)c3cc(F)c4c(c3)S(=O)(=O)[C@@H](F)COC4)cc2n1 [Compound 44]
75.5	9.67	9.2	C[C@H](NC(=O)c1cc(F)c2c(c1)S(=O)(=O)[C@@H](F)COC2)c1cc2nc(N3CCOc4cc(C5CC5)cnc43)ccc2cn1 [Compound 278]
88.2	18.95	4.7	O=C(NCc1cc2nc(N3CCOc4cc(N5C[C@H](F)[C@@H](F)C5)cnc43)ccc2cn1)c1cc(F)c2c(c1)S(=O)(=O)[C@@H](F)CCO2 [Compound 138]
26.7	9.59	2.8	O=C(NCc1cc2nc(N3CCOc4cc([C@@H]5CC5(F)F)cnc43)ccc2cn1)c1cc(F)c2c(c1)S(=O)(=O)[C@@H](F)COC2 [Compound 74]
164	18.19	9.2	O=C(NCc1cc2nc(N3CCOc4ccc([C@H](F)CF)nc43)ccc2cn1)c1cc(F)c2c(c1)S(=O)(=O)[C@@H](F)CCO2 [Compound 279]
97	23.13	5	O=C(NCc1cc2nc(N3CCOc4ccc([C@@H]5C[C@H]5F)nc43)ccc2cn1)c1cc(F)c2c(c1)S(=O)(=O)[C@@H](F)CCO2 [Compound 156]
168	24.88	5.9	O=C(NCc1cc2nc(-c3ccnc([C@H]4CC4(F)F)n3)ccc2cn1)c1cc(F)c2c(c1)S(=O)(=O)[C@@H](F)CCO2 [Compound 195]
87.2	17.52	3.9	O=C(NCc1cc2nc(N3CCOc4cc(N5CC[C@H](F)[C@@H](F)C5)cnc43)ccc2cn1)c1cc(F)c2c(c1)S(=O)(=O)[C@@H](F)CCO2 [Compound 109]
